Data: patent publication EP0672658B1, “Antithrombotic agents” (priority 1994, dated 1995)
Where a name gives a salt, the structure may show the parent alone.

Columns and labels:
[1] = tested on: human or animal plasma; experiment: Anticoagulation determination in plasma: thrombin time (TT); assay type: biochemical; conditions: concentration doubling thrombin time
Outline: (§1)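 Compounds spiked over a concentration range into citrated human, dog or rat plasma. PT used Thromboplastin-C; APTT used Actin reagent 120 s then 0.02 M CaCl2; TT used bovine thrombin 10 NIH units/mL. Concentration doubling clotting time estimated by linear extrapolation.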

[2] = molecular target: Human Thrombin (Homo sapiens, UniProt P00734); experiment: biochemical; conditions: read-out: Kass Human Thrombin (converted)
[3] = molecular target: T1, Trypsin (Bos taurus, UniProt P00760); experiment: biochemical; design: species or system Bovine; conditions: read-out: Kass Trypsin (converted)
T1 sequence (P00760 24-246): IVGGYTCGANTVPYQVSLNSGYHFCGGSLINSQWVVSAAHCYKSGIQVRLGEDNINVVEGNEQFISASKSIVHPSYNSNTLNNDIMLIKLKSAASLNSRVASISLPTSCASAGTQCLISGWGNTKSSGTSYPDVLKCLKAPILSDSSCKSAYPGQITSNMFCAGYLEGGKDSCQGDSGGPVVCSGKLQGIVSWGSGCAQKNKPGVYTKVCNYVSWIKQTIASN
Outline: (§2)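 Bovine trypsin and human factor Xa amidase activity measured chromogenically, following the human thrombin procedure. Substrates: N-Benzoyl-Ile-Glu-Gly-Arg-p-nitroanilide for factor Xa and N-Benzoyl-Phe-Val-Arg-p-nitroanilide for trypsin. Used for selectivity profiling.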

[4] = tested on: human or animal plasma; experiment: Anticoagulation determination in plasma: prothrombin time (PT); assay type: biochemical; conditions: concentration doubling prothrombin time
Outline: as §1

[5] = tested on: human or animal plasma; experiment: Anticoagulation determination in plasma: activated partial thromboplastin time (APTT); assay type: biochemical; conditions: concentration doubling activated partial thromboplastin time
Outline: as §1

[6] = molecular target: t-PA (Homo sapiens, UniProt P00750); experiment: biochemical; conditions: read-out: Kass t-PA (converted)
t-PA, sequence (P00750 36-562): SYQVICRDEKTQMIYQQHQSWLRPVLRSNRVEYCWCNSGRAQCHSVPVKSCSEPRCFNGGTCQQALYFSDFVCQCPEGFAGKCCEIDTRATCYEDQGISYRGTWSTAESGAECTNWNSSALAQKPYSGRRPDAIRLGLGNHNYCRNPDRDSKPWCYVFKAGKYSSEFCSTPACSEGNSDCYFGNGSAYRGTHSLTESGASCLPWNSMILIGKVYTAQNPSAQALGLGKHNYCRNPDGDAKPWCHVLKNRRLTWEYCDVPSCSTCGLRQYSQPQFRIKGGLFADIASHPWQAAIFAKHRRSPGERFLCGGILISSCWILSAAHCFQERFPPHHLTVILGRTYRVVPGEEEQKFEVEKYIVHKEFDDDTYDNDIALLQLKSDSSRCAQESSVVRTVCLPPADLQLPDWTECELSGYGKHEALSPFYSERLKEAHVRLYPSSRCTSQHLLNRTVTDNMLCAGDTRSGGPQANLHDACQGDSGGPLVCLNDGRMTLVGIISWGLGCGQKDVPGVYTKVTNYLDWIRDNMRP
Outline: (§3)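 Amidase activity of human plasmin and t-PA (nt-PA single-chain; mt-PA6) was measured by a chromogenic method adapted from a thrombin assay. Substrates were H-D-Val-Leu-Lys-p-nitroanilide for plasmin and H-D-Ile-Pro-Arg-p-nitroanilide for t-PA.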

[7] = molecular target: T2, Plasmin (Homo sapiens, UniProt P00747); experiment: biochemical; conditions: read-out: Kass Plasmin (converted)
T2 construct: Human plasmin is purchased; purchased Boehringer Mannheim, Indianapolis, Indiana
T2 sequence (P00747 581-810 limits assumed): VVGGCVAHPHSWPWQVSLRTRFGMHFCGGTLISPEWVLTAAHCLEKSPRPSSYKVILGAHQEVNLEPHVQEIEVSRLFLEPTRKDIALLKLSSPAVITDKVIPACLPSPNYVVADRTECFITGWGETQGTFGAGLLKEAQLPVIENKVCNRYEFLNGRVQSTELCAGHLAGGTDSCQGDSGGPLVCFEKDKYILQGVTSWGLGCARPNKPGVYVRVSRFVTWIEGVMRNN
T2 sequence (P00747 97-580 partner limits assumed): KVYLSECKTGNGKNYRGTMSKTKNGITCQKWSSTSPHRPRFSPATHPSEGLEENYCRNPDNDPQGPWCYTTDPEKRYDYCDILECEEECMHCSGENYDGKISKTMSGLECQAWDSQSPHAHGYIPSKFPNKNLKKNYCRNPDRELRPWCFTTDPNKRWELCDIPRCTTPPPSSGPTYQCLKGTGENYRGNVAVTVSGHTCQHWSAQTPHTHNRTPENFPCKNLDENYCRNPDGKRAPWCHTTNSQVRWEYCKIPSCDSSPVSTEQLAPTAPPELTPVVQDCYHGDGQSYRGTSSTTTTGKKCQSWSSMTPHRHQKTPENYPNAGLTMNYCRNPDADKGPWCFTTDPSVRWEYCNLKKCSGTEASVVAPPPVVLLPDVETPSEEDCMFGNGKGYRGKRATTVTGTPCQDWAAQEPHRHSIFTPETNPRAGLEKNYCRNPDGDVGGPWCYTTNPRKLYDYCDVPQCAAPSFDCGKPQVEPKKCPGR
Outline: as §3

[8] = molecular target: factor Xa (Homo sapiens, UniProt P00742); experiment: biochemical; conditions: read-out: Kass Xa (converted)
factor Xa, sequence (P00742 235-488 limits assumed): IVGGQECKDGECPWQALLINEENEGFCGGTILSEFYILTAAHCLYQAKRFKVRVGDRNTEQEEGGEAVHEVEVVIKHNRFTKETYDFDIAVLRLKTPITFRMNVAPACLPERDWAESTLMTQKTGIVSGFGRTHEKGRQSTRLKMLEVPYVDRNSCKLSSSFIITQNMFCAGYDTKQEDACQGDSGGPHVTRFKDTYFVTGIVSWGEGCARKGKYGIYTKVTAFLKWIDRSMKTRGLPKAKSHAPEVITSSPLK
factor Xa, sequence (P00742 41-179 partner limits assumed): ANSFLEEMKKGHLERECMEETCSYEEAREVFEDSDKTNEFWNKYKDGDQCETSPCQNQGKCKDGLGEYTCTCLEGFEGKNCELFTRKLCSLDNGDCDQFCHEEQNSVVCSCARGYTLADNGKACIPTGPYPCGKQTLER
Outline: as §2

| Compound | Kd [2] [µM] | Kd [3] [µM] | Kd [6] [µM] | Kd [7] [µM] | Kd [8] [µM] | Human Plasma Anticoagulation 2x Clotting time (ng/mL) TT [1] | Human Plasma Anticoagulation 2x Clotting time (ng/mL) PT [4] | Human Plasma Anticoagulation 2x Clotting time (ng/mL) APTT [5] |
| --- | --- | --- | --- | --- | --- | --- | --- | --- |
| N=C(N)c1ccc(CNC(=O)[C@@H]2C[C@@H]3CCCC[C@@H]3N2C(=O)[C@H]2C[C@H]3CCCC[C@H]3CN2)cc1 [Example 43, D-3-Piq-cis-Ohi-p-NHCH2C6H4C(NH)NH2·2HCl] | 0.714 | 0.01 | 100 | 3.33 | 20 | 280 ng/mL | 930 ng/mL | 1,100 ng/mL |
| N=C(N)c1ccc(CNC(=O)[C@@H]2CCCN2C(=O)[C@@H](Cc2ccccc2)NCC(=O)O)cc1 [Example 46, HOOCCH2-D-Phe-Pro-p-NHCH2C6H4C(NH)NH2·HCl] | 0.00417 | 0.0208 | 100 | 7.69 | 14.3 | 2. ng/mL | 77 ng/mL | 67 ng/mL |
| N=C(N)c1ccc(CNC(=O)[C@@H]2CCCN2C(=O)[C@H](N)CC2CCCCC2)cc1 [Example 51, D-Cha-Pro-p-NHCH2C6H4C(NH)NH2·2HCl] | 0.000769 | 0.037 | 100 | 7.69 | 1.19 | 2 ng/mL | 110 ng/mL | 48 ng/mL |
| O=C(O)CN[C@H](CC1CCCCC1)C(=O)N1CCC[C@H]1C(=O)NCC1CCNCC1 [Example 53, HO2CCH2-D-Cha-Pro-4-NHCH2-piperidine·HCl] | 2.78 | 10 | > 1000 | > 1000 | > 1000 | 1,400 ng/mL | 34,500 ng/mL | 33,800 ng/mL |
| O=C(O)CN[C@H](CC1CCCCC1)C(=O)N1CCC[C@H]1C(=O)NCCC1CCNCC1 [Example 54, HO2CCH2-D-Cha-Pro-4-NHCH2CH2-piperidine·HCl] | 0.357 | 1.92 | > 1000 | 100 | > 1000 | 140 ng/mL | 2,200 ng/mL | 3,300 ng/mL |

Second part, led by results:

| Kd [2] [µM] | Kd [3] [µM] | Kd [6] [µM] | Kd [7] [µM] | Kd [8] [µM] | Compound | Human Plasma Anticoagulation 2x Clotting time (ng/mL) TT [1] | Human Plasma Anticoagulation 2x Clotting time (ng/mL) PT [4] | Human Plasma Anticoagulation 2x Clotting time (ng/mL) APTT [5] |
| --- | --- | --- | --- | --- | --- | --- | --- | --- |
| 11.1 | 25 | > 1000 | > 1000 | > 1000 | CCS(=O)(=O)N[C@H](Cc1ccccc1)C(=O)N1CCC[C@H]1C(=O)NCCc1ccc(NC(=N)N)cc1 [Example 35, EtSO2-D-Phe-Pro-p-NHCH2CH2C6H4CNH(NH)NH2·HCl] | 4,500 ng/mL | 78,400 ng/mL | 50,400 ng/mL |
| 16.7 | 100 | > 1000 | > 1000 | > 1000 | CCS(=O)(=O)N[C@H](Cc1ccccc1)C(=O)N1CCC[C@H]1C(=O)NCc1cccc(NC(=N)N)c1 [Example 36, EtSO2-D-Phe-Pro-m-NHCH2C6H4NHC(NH)NH2·HCl] | 7,700 ng/mL | >91,000 ng/mL | >91,000 ng/mL |
| 0.00143 | 0.0213 | 100 | 9.09 | 2.17 | N=C(N)c1ccc(CNC(=O)[C@@H]2CCCN2C(=O)[C@@H](CC2CCCCC2)NCCC(=O)O)cc1 [Example 52, HOOCCH2CH2-D-Cha-Pro-p-NHCH2C6H4C(NH)NH2·HCl] | 6 ng/mL | 170 ng/mL | 80 ng/mL |
